We go through 2 molecules from patent US7405207B2, “Nebulizer formulations of dehydroepiandrosterone and methods of treating asthma or chronic obstructive pulmonary disease using compositions thereof” (Epigenesis Pharmaceuticals, Inc., priority 2002, dated 2008).

Common to all, as to type: physicochemical
One series in a line: Solubility of DHEA-S. The following applies: 20 mM Na+ (0.12% NaCl), Ksp of 1316 mM^2, 15° C. From the text:
Inhalation of pure water can produce a cough stimulus.

Series [1] in a line: Short-term solution stability. The following applies: 7.5 mg/mL in 0.12% NaCl, room temperature. Here is the method:
Stability Studies. […] Aliquots of this solution are filled into clear glass vials and stored at room temperature (24-26° C.) and at 40° C. The samples are checked daily for DHEA-S content, DHEA content, and appearance. For each time point, duplicate samples are withdrawn and diluted from each vial.

A short description of series [2]: Stability of anhydrous DHEA-S and DHEA-S dihydrate with and without lactose (HPLC, DHEA formed). From the text: These conditions were used to stress the formulation in order to predict its long-term stability results.
The primary degradant is dehydroepiandrosterone or DHEA. […] The materials on accelerated storage become more cohesive with time as evidenced by clumping during sample weighing for chemical analysis. […] This is a considerable disadvantage since lactose is the most commonly used inhalation excipient for dry powder formulations. Continuing with the virtually anhydrous form would mean limiting formulations to neat powder or undertaking more comprehensive safety studies to use a novel excipient.

Where “and” joins values, the source holds several entries; their conditions need not be identical. Equal values may be shown once.

On to `C[C@]12CC[C@H](OS(=O)(=O)[O-])CC1=CC[C@@H]1[C@@H]2CC[C@]2(C)C(=O)CC[C@@H]12.[Na+]` [DHEA-S, sodium dehydroepiandrostenone sulfate], for which, in the series “Solubility of DHEA-S”, the “calculated DHEA-S concentration (solubility)” value was 27.5 mM and 10.7 mg/mL. The solution stability result in series [1] is on record as “stable for at least one day”.

As to `CC12CCC3C(CC=C4CC(OS(=O)(=O)[O-])CCC43C)C1CCC2=O.[Na+]` (stereo not shown) [DHEA-S Dihydrate, dehydroepiandrosterone sodium sulfate dihydrate], the water content in series [2] (after accelerated storage, one week at 50° C.) amounted to 8.66%; in series [2] (starting value) it was 8.8%.
